PMC6052345, “Functional Analysis of the Chemosensory Protein MsepCSP8 From the Oriental Armyworm Mythimna separata” (Frontiers in Physiology, 2018)

Legend:
Mythimna separata [1] = assay: Y-tube olfactometer bioassay (before RNAi); type: in vivo; details: for behavioral response in words: male and female moths; for behavioral response (attraction) of females: 3-day-old female moths; for behavioral response (attraction) of females / behavioral response (attraction) of males: 10 μl volatile vs liquid paraffin; for behavioral response (attraction) of males: 3-day-old male moths
Description: Mythimna separata behavioral responses were examined by olfactometer bioassays ([Cao et al., 2015]) performed in a glass Y-tube (base = 4.0 cm diameter by 25 cm length, arms = 3.0 cm diameter by 26 cm length) using 10 different volatile compounds (Sigma-Aldrich).
Air entering the tube was passed through activated charcoal for filtration and humidified using deionised water. Filtered air was split between two chambers; one chamber containing liquid paraffin (used as control) and the other containing the test volatile. Each chamber was connected to one arm of the Y-tube. Airflow was kept constant at 6.0 l min^-1 throughout the experiment using an inline flow meter (Gilmont Instr., Barnant Co., Barrington, IL, United States). Orange light was used for this experiment. The whole experiment was conducted in a dark room, and the relative humidity and temperature were maintained at 70 ± 5% and 25 ± 1°C, respectively. A 10 μl of volatile compound was applied to 10 mm × 10 mm filter papers (Whatman No. 1) that was placed in the chamber connected to one arm of the Y-tube. A separate Y-tube was used for male and female moths.
To perform bioassays, a 3-day-old moth, either male or female, was released in the base of the Y-tube. Each insect was given 10 min to respond to the treatment, and the number of moths showing attraction, repulsion or no response was counted. Approximately 30 min before onset of the trial, male and female adults were placed into separate glass tubes (50 ml) and covered with a cotton plug to avoid exposure to tested volatiles. In total, 60 adults (30 male and 30 female) were tested per volatile compound, and χ^2 tests were applied to evaluate the number of M. separata individuals attracted to or repelled by volatiles.

MsepCSP8 = MsepCSP8 (Mythimna separata, UniProt A0A1V1WC03); assay: Fluorescence competitive binding assay with 1-NPN as fluorescent probe; details: for IC50: displacement of 1-NPN; for Ki: calculated from IC50; for binding affinity to MsepCSP8 in words: discussion of Table 1, pH not stated
Method: The expressed protein was obtained in soluble form in the supernatant, and purification was accomplished using a Ni affinity chromatography column (GE Healthcare, Uppsala, Sweden). Bound protein was eluted by digestion with recombinant bovine enterokinase at 26°C for 15 h to remove the His-tag. Expression and purification were verified by 15% sodium dodecyl sulfate-polyacrylamide gel electrophoresis (SDS-PAGE), and protein concentration was measured as described by [Cao et al. (2017)]. Dialysis of purified protein was carried out in 30 mM Tris-HCl buffer [Tris(hydroxymethyl)aminomethane] at pH 7.4 and pH 5.0 before fluorescence binding assays, and protein was stored at -80°C until use.
Fluorescence competitive binding assays were performed to determine the binding affinity of MsepCSP8 for 56 ligands using N-phenyl-1-naphthylamine (1-NPN) as a fluorescent probe. Stock solutions of ligands were prepared in spectrophotometric-grade methanol. […] Mixtures of 1-NPN and protein were excited at 337 nm wavelength, and emission spectra were recorded from 360 to 600 nm using a fluorescence spectrophotometer (RF-5301PC Shimadzu, Kyoto, Japan). Binding of selected ligands with MsepCSP8 (1:1 protein:ligand stoichiometry) was evaluated using 1-NPN as a fluorescent probe, with the final concentration of the product ranging from 0 to 20 μM. […] Three independent measurements were made for all experiments. The binding affinity (Ki) of MsepCSP8 for all tested ligands was calculated based on IC50 values as follows:
Ki=IC50/(1 + [1−NPN]/K1–NPN)
where [1-NPN] is the free concentration of 1-NPN, and K1-NPN is the dissociation constant of the complex of MsepCSP8 and 1-NPN.

Mythimna separata [2] = assay: Y-tube olfactometer bioassay after dsMsepCSP8 injection; type: in vivo; details: males and females, 3 days post-eclosion
Method: The dsRNA (500 nl of 10 ng nl^-1) was injected into 3rd and 4th abdominal segment of 7-day old pupae using a microinjector (World Precision Instruments Inc., Sarasota, FL, United States) under a microscope. After injection, pupae were kept in petri dishes until eclosion at 25 ± 1°C and 70 ± 5% relative humidity. Three treatments were set up for RNAi consisting of non-injected (controls), dsGFP-injected and dsRNA-injected (dsMsepCSP8) groups. After eclosion, adults from each treatment were kept in separate containers. Three individuals of each sex from all three treatments were taken at 1, 2, 3, 4, and 5 days post-eclosion for RNAi analysis. RT-qPCR was performed using the method described above.
Y-tube bioassays were performed both before and after RNAi application to confirm the MsepCSP8 gene silencing effect. Three treatments consisting of dsGFP-injected, dsRNA-injected (dsMsepCSP8), and controls were tested on both 3-day old male and female moths.

Sequence of MsepCSP8 (A0A1V1WC03 entry or part of it): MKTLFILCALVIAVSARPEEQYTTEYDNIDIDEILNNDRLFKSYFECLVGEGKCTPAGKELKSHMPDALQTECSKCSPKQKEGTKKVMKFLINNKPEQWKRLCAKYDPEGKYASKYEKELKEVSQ

Row | IC50 (MsepCSP8; IC50, pH 5.0) [µM] | IC50 (MsepCSP8; IC50, pH 7.4) [µM] | Ki (MsepCSP8; pH 5.0) [µM] | Ki (MsepCSP8; pH 7.4) [µM] | binding affinity to MsepCSP8 in words (MsepCSP8) | SMILES | behavioral response in words (Mythimna separata [1]) | behavioral response (attraction) of females (Mythimna separata [1]) [%] | behavioral response (attraction) of males (Mythimna separata [1]) [%] | behavioral responses of adults after dsMsepCSP8 injection (Mythimna separata [2])
1 | 9.46 | 13.9 | 7.06 | 9.74 | high binding affinities | CC1=CCC(O)(C(C)C)CC1 (single isomer, unassigned; (-)) [(–)-Terpinen-4-ol] | repelled | – | – | –
2 | 22.2 | 9.27 | 16.6 | 6.5 | bound strongly | C=CC(O)CC (centres unmarked) [1-Penten-3-ol] | distinct preference | – | – | –
3 | 7.75 | 9.07 | 5.78 | 6.37 | high affinity | CCCCCCCCCCCC(C)=O [2-Tridecanone] | non-significant attraction | – | – | –
4 | – | – | – | – | – | CCCCCC=O [Hexanal] | – | 73.33 | 70 | not significantly affect
5 | 13.7 | 9.87 | 10.2 | 6.93 | high affinities | CCCCCCCC=O [Octanal] | non-significant response | – | – | –
6 | 27 | 8.82 | 20.1 | 6.19 | high binding affinities | CC1=CCC(=C(C)C)CC1 [Terpinolene] | – | 80 | 90 | not significantly affect

Row | SMILES | IC50 (MsepCSP8; IC50, pH 5.0) [µM] | IC50 (MsepCSP8; IC50, pH 7.4) [µM] | Ki (MsepCSP8; pH 5.0) [µM] | Ki (MsepCSP8; pH 7.4) [µM] | binding affinity to MsepCSP8 in words (MsepCSP8) | behavioral response in words (Mythimna separata [1]) | behavioral response (attraction) of females (Mythimna separata [1]) [%] | behavioral response (attraction) of males (Mythimna separata [1]) [%] | behavioral responses of adults after dsMsepCSP8 injection (Mythimna separata [2])
7 | CCC/C=C/C=O [Trans-2-hexenal] | 8.85 | 12.5 | 6.6 | 8.8 | high affinities | non-significant response | – | – | –
